Type in all cases: cell-based
Data set [1] is described as follows: Cell toxicity, cell growth inhibition assay (MTT uptake). As to conditions: CCID-50: 50% inhibition of cell viability at 5 days; uninfected MT4 cells or vero cells (not stated which); read-out: TOX. The procedure: Cell toxicity was assessed in a cell growth inhibition assay on uninfected MT4 cells or on vero cells in a 96-well microtiter dish. Identical cell numbers of uninfected cells were exposed to different dilutions of drug and cell viability determined daily on replicate cultures using uptake of MTT. The concentration required for a 50% inhibition of cell viability at 5 days is termed CCID-50.

Data set [2] concerns HIV-1. Put plainly: Antiviral MT4 assay (reversal of HIV cytopathic effect, MTT uptake). The settings on record: MTT uptake at fifth day post infection, several values per cell, read-out: IC50 vs HIV-1 (μM) MT-4 (converted). The procedure: Antiviral activity against the Human Immunodeficiency Virus (HIV) was determined according to the method of Pauwels et al, J.Virol.Methods, 1988 20 309-321 by measuring the ability of the compound to reverse the cytopathic effect of HIV infection. This was determined by a quantitative assessment of cell growth monitored at the fifth day post infection by a tetrazolium dye (MTT) uptake test. Subconfluent (20-40,000 cells/well) human T lymphocyte cell line MT4 cells infected with HIV were grown in 96-well microtiter dishes and exposed to different dilutions of drug. After 5 days, the dye intake test was performed on drug treated cultures and on HIV infected and mock infected MT4 cells. Under the conditions of the test, HIV infection caused extensive cytopathic effect and prevented cell growth by >80%. The antiviral effect of a drug is reported as an IC-50, i.e. as the inhibitory concentration that would protect 50% of the cells from cell killing, measured as 50% of that cell growth determined for uninfected MT4 cell controls.

Data set [3] has as its system HIV-1. Put plainly: PBL assay (P24 capsid antigen ELISA in human peripheral blood lymphocytes). The settings on record: human PBL's stimulated with IL2 and PHA, P24 ELISA after 4 days incubation at 37°C, several values per cell. The procedure:
HIV assays were carried out in human peripheral blood lymphocytes (PBL's) prepared by fractionation of fresh human […] on Ficoll gradients as described by Hartmann H. et al. Aids Research and Human Retroviruses, 1988, 4 457-466. The isolated PBL's were stimulated with growth factors IL2 and PHA for 3 days before infection with HIV. Growth of virus was monitored, after 4 days incubation at 37°C, by quantitative ELISA assays of the capsid antigen, P24. A range of concentrations of compound of known molarity was incorporated into the medium. Yield of P24 at each concentration are expressed as a percentage of the control and a dose response curve is drawn. From this curve the 50% inhibitory concentration (IC50) is estimated.

In data set [4] the test system is HIV-1. Description: HeLa-CD4+ cell assay (plaque reduction in HT4-6C cell monolayers). As to conditions: Human immunodeficiency virus 1, plaque reduction after 2-3 days, method calls the value ID50. The procedure:
Susceptibility of HIV to inhibitors was determined by infection of HT4-6C cell monolayers as described by Larder, B.A., Chesebro, B. & Richman, D.D. Antimicrob. Agents Chemother. 1990 34, 436-441. Briefly cells were seeded in 24-well multiwells at 5x10⁴ cells per well and incubated overnight at 37°C in growth medium (DMEM10). Monolayers were infected with 100-200pfu of cell-free virus in 0.2ml of DMEM containing 5% fetal bovine serum plus antibiotics (DMEM5) and incubated for 1 hour at 37°C to allow virus adsorption. Following this time, 0.8ml of DMEM5 (with or without inhibitor) was added to each well and cultures were incubated at 37°C for 2-3 days. Monolayers were fixed with 10% formaldehyde solution in PBS and stained with 0.25% crystal violet in order to visualize virus plaques. Individual foci of multinucleated gian cells (plaques) were apparent using this staining procedure. ID₅₀ values were derived from plots of percent plaque reduction versus inhibitor concentration.

Where [5] appears, read: Human immunodeficiency virus 1, Lymphocyte, 96 h.

Some results are limits rather than exact numbers.

On to `COCc1cn([C@H]2C[C@H](F)[C@@H](CO)O2)c(=O)[nH]c1=O` [2′,3′-Dideoxy-3′-fluoro-5-methoxymethyluridine], for which the CC50 at 120 h in data set [1] is more than 500 µM. Besides, the IC50 with HIV-1 [2] (Human immunodeficiency virus 1, MT4, MT4 cells infected with HIV) is 8.4 µM; in the data set on HIV-1 [2] (MT4 cells infected with HIV) it was 6.4 µM; in the data set with HIV-1 [3] (setting [5]), 1.89 µM; in the data set with HIV-1 [4] it was 11.9 µM.

With `CSCc1cn([C@H]2C[C@H](F)[C@@H](CO)O2)c(=O)[nH]c1=O` [2′,3′-Dideoxy-3′-fluoro-5-methylthiomethyluridine], the CC50 at 120 h in data set [1] was more than 200 µM. This compound also returned an IC50 in the data set with HIV-1 [4] of 4.2 µM.

Take `CCOCc1cn([C@H]2C[C@H](F)[C@@H](CO)O2)c(=O)[nH]c1=O` [2′,3′-Dideoxy-5-ethoxymethyl-3′-fluorouridine]: the CC50 at 120 h in data set [1] is more than 200 µM. Besides, the IC50 with HIV-1 [3] (setting [5]) was 1.52 µM; in the data set on HIV-1 [3], 1.63 µM; in the data set on HIV-1 [4] it was 6.3 µM.

Values taken from patent publication EP0442757A2, “Therapeutic nucleosides” (THE WELLCOME FOUNDATION LIMITED, priority 1990, dated 1991).
